Laboratory results taken from PubChem BioAssay (NCI).
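Cells were grown in 96-well plates and exposed to each compound for 48 hours at five concentrations; endpoints were interpolated linearly between bracketing concentrations, or set to the highest concentration if not reached. At the GI50, growth is halved. TGI: total growth inhibition.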 Where a SMILES comes first, the peptide text is derived from it. [ ]: non-standard residue; d: D form. The star is where a group is joined. ξ: configuration not given here. ξD = NC(CC(=O)O)C(=O)O; Boc = CC(C)(C)OC(=O)*; Aib = CC(C)(N)C(=O)O; OtBu = CC(C)(C)O*

Experiments:
Test in all cases: inhibition of tumour cell growth, NCI panel, 48 h; in the data active = GI50 below about 0.43 µM; inactive = the rest
PC-3 prostate = test system: PC-3 prostate
T-47D breast = test system: T-47D breast
NCI-H23 lung = test system: NCI-H23 lung
NCI-H460 lung = test system: NCI-H460 lung
SK-MEL-5 melanoma = test system: SK-MEL-5 melanoma
NCI/ADR-RES ovarian = test system: NCI/ADR-RES ovarian
SF-539 CNS = test system: SF-539 CNS
SW-620 colon = test system: SW-620 colon
NCI-H226 lung = test system: NCI-H226 lung
MALME-3M melanoma = test system: MALME-3M melanoma
SNB-75 CNS = test system: SNB-75 CNS
A498 renal = test system: A498 renal
MCF7 breast = test system: MCF7 breast
SNB-19 CNS = test system: SNB-19 CNS
HS 578T breast = test system: HS 578T breast
786-0 renal = test system: 786-0 renal
COLO 205 colon = test system: COLO 205 colon
UACC-62 melanoma = test system: UACC-62 melanoma
MDA-MB-435 = test system: MDA-MB-435
KM12 colon = test system: KM12 colon
DU-145 prostate = test system: DU-145 prostate
HCT-116 colon = test system: HCT-116 colon
HCT-15 colon = test system: HCT-15 colon
OVCAR-4 ovarian = test system: OVCAR-4 ovarian
CCRF-CEM leukemia = test system: CCRF-CEM leukemia
HOP-92 NSCLC = test system: HOP-92 NSCLC
UACC-257 melanoma = test system: UACC-257 melanoma
K-562 leukemia = test system: K-562 leukemia
HT29 colon = test system: HT29 colon
SK-MEL-2 melanoma = test system: SK-MEL-2 melanoma
LOX IMVI melanoma = test system: LOX IMVI melanoma
OVCAR-8 ovarian = test system: OVCAR-8 ovarian
HOP-62 NSCLC = test system: HOP-62 NSCLC
UO-31 renal = test system: UO-31 renal
BT-549 breast = test system: BT-549 breast
NCI-H522 lung = test system: NCI-H522 lung
RPMI-8226 leukemia = test system: RPMI-8226 leukemia
M14 melanoma = test system: M14 melanoma
SK-OV-3 ovarian = test system: SK-OV-3 ovarian
OVCAR-5 ovarian = test system: OVCAR-5 ovarian
MOLT-4 leukemia = test system: MOLT-4 leukemia
IGROV1 ovarian = test system: IGROV1 ovarian
U251 CNS = test system: U251 CNS
SF-268 CNS = test system: SF-268 CNS
ACHN renal = test system: ACHN renal
CAKI-1 renal = test system: CAKI-1 renal
A549 NSCLC = test system: A549 NSCLC
SF-295 CNS = test system: SF-295 CNS
OVCAR-3 ovarian = test system: OVCAR-3 ovarian
SK-MEL-28 melanoma = test system: SK-MEL-28 melanoma
TK-10 renal = test system: TK-10 renal
MDA-MB-231 breast = test system: MDA-MB-231 breast
RXF 393 renal = test system: RXF 393 renal
EKVX NSCLC = test system: EKVX NSCLC
SN12C renal = test system: SN12C renal
HCC-2998 colon = test system: HCC-2998 colon
HL-60(TB) leukemia = test system: HL-60(TB) leukemia

COC(=O)C(C)(C)NC(=O)C(C)(C)NC(=O)C(CC(=O)OC(C)(C)C)NC(=O)OC(C)(C)C (centres undefined) (Boc-[ξD](OtBu)-[Aib]-[Aib]-OMe)
> 100 µM: TGI (PC-3 prostate) | TGI (T-47D breast) | TGI (NCI-H23 lung) | TGI (NCI-H460 lung) | TGI (SK-MEL-5 melanoma) | TGI (NCI/ADR-RES ovarian) | TGI (SF-539 CNS) | TGI (SW-620 colon) | TGI (NCI-H226 lung) | TGI (MALME-3M melanoma) | TGI (SNB-75 CNS) | TGI (A498 renal) | TGI (MCF7 breast) | TGI (SNB-19 CNS) | TGI (HS 578T breast) | TGI (786-0 renal) | TGI (COLO 205 colon) | TGI (UACC-62 melanoma) | TGI (MDA-MB-435) | TGI (KM12 colon) | TGI (DU-145 prostate) | TGI (HCT-116 colon) | TGI (HCT-15 colon) | TGI (OVCAR-4 ovarian) | TGI (CCRF-CEM leukemia) | TGI (HOP-92 NSCLC) | TGI (UACC-257 melanoma) | TGI (K-562 leukemia) | TGI (HT29 colon) | TGI (SK-MEL-2 melanoma) | TGI (LOX IMVI melanoma) | TGI (OVCAR-8 ovarian) | TGI (HOP-62 NSCLC) | TGI (UO-31 renal) | TGI (BT-549 breast) | TGI (NCI-H522 lung) | TGI (RPMI-8226 leukemia) | TGI (M14 melanoma) | TGI (SK-OV-3 ovarian) | TGI (OVCAR-5 ovarian) | TGI (MOLT-4 leukemia) | TGI (IGROV1 ovarian) | TGI (U251 CNS) | TGI (SF-268 CNS) | TGI (ACHN renal) | TGI (CAKI-1 renal) | TGI (A549 NSCLC) | TGI (SF-295 CNS) | TGI (OVCAR-3 ovarian) | TGI (SK-MEL-28 melanoma) | TGI (TK-10 renal) | TGI (MDA-MB-231 breast) | TGI (RXF 393 renal) | TGI (EKVX NSCLC)

COc1ccc(-c2nc3c(-c4ccccc4)nc(-c4ccccc4)cn3c2-c2ccc(OC)cc2)cc1
inactive: GI50 (PC-3 prostate) > 100 µM | GI50 (T-47D breast) > 100 µM | GI50 (NCI-H23 lung) > 100 µM | GI50 (SN12C renal) > 100 µM | GI50 (NCI-H460 lung) > 100 µM | GI50 (SK-MEL-5 melanoma) > 100 µM | GI50 (NCI/ADR-RES ovarian) > 100 µM | GI50 (SF-539 CNS) 88.2 µM | GI50 (SW-620 colon) > 100 µM | GI50 (MALME-3M melanoma) > 100 µM | GI50 (HCC-2998 colon) > 100 µM | GI50 (SNB-75 CNS) 26.8 µM | GI50 (A498 renal) > 100 µM | GI50 (MCF7 breast) > 100 µM | GI50 (SNB-19 CNS) > 100 µM | GI50 (HS 578T breast) 30.6 µM | GI50 (786-0 renal) 49.5 µM | GI50 (COLO 205 colon) > 100 µM | GI50 (UACC-62 melanoma) 88.6 µM | GI50 (MDA-MB-435) > 100 µM | GI50 (KM12 colon) > 100 µM | GI50 (DU-145 prostate) > 100 µM | GI50 (HCT-116 colon) > 100 µM | GI50 (HCT-15 colon) > 100 µM | GI50 (OVCAR-4 ovarian) > 100 µM | GI50 (HOP-92 NSCLC) 54.6 µM | GI50 (UACC-257 melanoma) > 100 µM | GI50 (K-562 leukemia) > 100 µM | GI50 (HT29 colon) > 100 µM | GI50 (LOX IMVI melanoma) > 100 µM | GI50 (OVCAR-8 ovarian) > 100 µM | GI50 (HOP-62 NSCLC) 40.6 µM | GI50 (BT-549 breast) > 100 µM | GI50 (RPMI-8226 leukemia) > 100 µM | GI50 (M14 melanoma) > 100 µM | GI50 (HL-60(TB) leukemia) 3.28 µM | GI50 (SK-OV-3 ovarian) 82.5 µM | GI50 (OVCAR-5 ovarian) > 100 µM | GI50 (U251 CNS) > 100 µM | GI50 (SF-268 CNS) > 100 µM | GI50 (ACHN renal) > 100 µM | GI50 (CAKI-1 renal) > 100 µM | GI50 (A549 NSCLC) > 100 µM | GI50 (SF-295 CNS) > 100 µM | GI50 (OVCAR-3 ovarian) > 100 µM | GI50 (SK-MEL-28 melanoma) > 100 µM | GI50 (TK-10 renal) > 100 µM | GI50 (MDA-MB-231 breast) 68.5 µM | GI50 (RXF 393 renal) 62.7 µM | GI50 (EKVX NSCLC) > 100 µM
52.6 µM: TGI (HL-60(TB) leukemia)
> 100 µM: TGI (PC-3 prostate) | TGI (T-47D breast) | TGI (NCI-H23 lung) | TGI (SN12C renal) | TGI (NCI-H460 lung) | TGI (SK-MEL-5 melanoma) | TGI (NCI/ADR-RES ovarian) | TGI (SF-539 CNS) | TGI (SW-620 colon) | TGI (MALME-3M melanoma) | TGI (HCC-2998 colon) | TGI (SNB-75 CNS) | TGI (A498 renal) | TGI (MCF7 breast) | TGI (SNB-19 CNS) | TGI (HS 578T breast) | TGI (786-0 renal) | TGI (COLO 205 colon) | TGI (UACC-62 melanoma) | TGI (MDA-MB-435) | TGI (KM12 colon) | TGI (DU-145 prostate) | TGI (HCT-116 colon) | TGI (HCT-15 colon) | TGI (OVCAR-4 ovarian) | TGI (HOP-92 NSCLC) | TGI (UACC-257 melanoma) | TGI (K-562 leukemia) | TGI (HT29 colon) | TGI (LOX IMVI melanoma) | TGI (OVCAR-8 ovarian) | TGI (HOP-62 NSCLC) | TGI (BT-549 breast) | TGI (RPMI-8226 leukemia) | TGI (M14 melanoma) | TGI (SK-OV-3 ovarian) | TGI (OVCAR-5 ovarian) | TGI (U251 CNS) | TGI (SF-268 CNS) | TGI (ACHN renal) | TGI (CAKI-1 renal) | TGI (A549 NSCLC) | TGI (SF-295 CNS) | TGI (OVCAR-3 ovarian) | TGI (SK-MEL-28 melanoma) | TGI (TK-10 renal) | TGI (MDA-MB-231 breast) | TGI (RXF 393 renal) | TGI (EKVX NSCLC)
